Assay: solvent given as SMILES

CCN(C)c1ccc(C2=C3C(C)=CC(/C=C/c4ccc(OCC(=O)OC)cc4)=[N+]3[B-](F)(F)n3c(C)cc(C)c32)cc1
emission maximum (in CO): 581 nm

CC1(C)c2cc(C#N)ccc2-c2ccc(N3c4ccccc4Oc4ccccc43)cc21
emission maximum (in C1CCCCC1): 433 nm
emission maximum (in C1CCOC1): 550 nm
emission maximum (in CC#N): 620 nm
emission maximum (in Cc1ccccc1): 487 nm
emission maximum (in ClC(Cl)Cl): 530 nm

O=C1c2cccc3c(-n4c5ccccc5c5ccccc54)ccc(c23)C(=O)N1C1CCCCC1
emission maximum (in C1CCOC1): 546 nm
emission maximum (in CCCCCC): 441 nm
emission maximum (in ClC(Cl)Cl): 495 nm
emission maximum (in ClCCl): 563 nm

C(=C\c1ncc(-c2ccc(OCc3ccccc3)c(OCc3ccccc3)c2)o1)/c1cccc(N2CCCC2)c1
emission maximum (in ClCCl): 485 nm

CCOC(=O)c1ccc2nc(/N=N/c3ccc(N(CC)CC)cc3)sc2c1
emission maximum (in CC#N): 582 nm
emission maximum (in ClCCl): 571 nm

CCN(C(C)=O)c1cc2c(cc1C)C(c1ccccc1C(=O)O)=C1CCCC(/C=C/C3=[N+](C)c4ccccc4C3(C)C)=C1O2
emission maximum (in CCO): 687 nm

CCOC(=O)c1cc(C(=O)OCC)c2cccc(O)c2n1
emission maximum (in CCO): 527 nm

O=c1cc2cc(O)c3cc(O)cc4ccc(o1)c2c43
emission maximum (in CC1CCCO1): 483 nm

COc1cccc2cc(C#N)c(=N)oc12
emission maximum (in ClCCl): 462 nm

CCCN1c2ccccc2Sc2cc(/C=C\c3cc(=O)oc4ccc(C)cc34)ccc21
emission maximum (in ClC(Cl)Cl): 637 nm

Nc1cc(N)cc(-c2nc3ccccc3s2)c1
emission maximum (in C1CCCCC1): 410.5 nm
emission maximum (in C1COCCO1): 458 nm
emission maximum (in CC#N): 482 nm
emission maximum (in CC(C)O): 513 nm
emission maximum (in CCOC(C)=O): 468 nm
emission maximum (in CCOCC): 457 nm
emission maximum (in CO): 519 nm
emission maximum (in O): 541 nm

CC1=[N+]2C(=C(c3ccccc3)c3c4c(c(C)n3[B-]2(F)F)C2CCC4CC2)C2=C1C1CCC2CC1
emission maximum (in CC#N): 543 nm

CCCCCCN1C(=O)c2cccc3cc(/N=C\c4c[nH]c5c4ccc4ccccc45)cc(c23)C1=O
emission maximum (in ClC(Cl)Cl): 501 nm

C1=CC2=CC=CC3C=c4c(cc5cccc6cccc4c65)C(=C1)C23 (configuration not stated)
emission maximum (in ClCCl): 574 nm

COC(=O)C(NC(=O)OC(C)(C)C)c1ccc2oc(-c3ccc(C#N)cc3)nc2c1 (configuration not stated)
emission maximum (in CC1CCCCC1): 342 nm
emission maximum (in CC#N): 384 nm
emission maximum (in CO): 385 nm

c1cc(-c2ccc(-n3c4ccccc4c4ccccc43)cc2)c2nsnc2c1
emission maximum (in ClCCl): 537 nm

c1ccc(-c2cc(-c3ccc4ccc5c(-c6ccnc(-c7ccccn7)c6)ccc6ccc3c4c65)ccn2)nc1
emission maximum (in C1CCOC1): 408 nm
emission maximum (in CC#N): 418.01 nm
emission maximum (in CCC#N): 408 nm
emission maximum (in CCCC#N): 408 nm
emission maximum (in CCCCCC): 397.99 nm
emission maximum (in CCCO): 429 nm
emission maximum (in CCO): 430 nm
emission maximum (in CO): 430 nm
emission maximum (in Cc1ccccc1): 410.17 nm

FC(F)(F)c1ccc(/C=C/c2nc(/C=C/c3ccc(N(c4ccccc4)c4ccccc4)cc3)cc(/C=C/c3ccc(N(c4ccccc4)c4ccccc4)cc3)n2)cc1
emission maximum (in C1CCOC1): 526 nm
emission maximum (in CC#N): 600 nm
emission maximum (in CC(C)=O): 567 nm
emission maximum (in CCCCCCC): 467 nm
emission maximum (in CS(C)=O): 599 nm
emission maximum (in Cc1ccccc1): 486 nm
emission maximum (in ClCCl): 554 nm

O=C1NC(=O)c2ccc(N3CCOCC3)c3cccc1c23
emission maximum (in ClC(Cl)Cl): 504 nm

CCC1(CC)c2cc(N(C)C)ccc2-c2ccc(C(F)(F)F)cc21
emission maximum (in C1CCCCC1): 360 nm
emission maximum (in CC#N): 337 nm
emission maximum (in CCO): 388 nm
emission maximum (in CCOCC): 373 nm
emission maximum (in CS(C)=O): 414 nm
emission maximum (in ClCCl): 387 nm
emission maximum (in c1ccccc1): 374 nm

c1ccc2c(c1)CCc1c-2cnc2c1-c1ccccc1CC2
emission maximum (in C1CCOC1): 356 nm
emission maximum (in CC#N): 358 nm
emission maximum (in CCCCCC): 358 nm
emission maximum (in CCOC(C)=O): 358 nm
emission maximum (in CO): 361 nm
emission maximum (in CS(C)=O): 360 nm
emission maximum (in Cc1ccccc1): 362 nm
emission maximum (in ClCCl): 363 nm

CCCCCCCCC1(CCCCCCCC)c2cc(-c3ccc(C#N)cc3)ccc2-c2ccc(-c3ccc(C#N)cc3)cc21
emission maximum (in ClC(Cl)Cl): 385 nm

CC(C)c1cccc(C(C)C)c1N1C(=O)c2ccc3c4c(-c5ccc(C(=O)O)cc5)c5ccc6c7c(cc8c9cc(C(=O)O)ccc9c(c9ccc(c2c39)C1=O)c4c8c57)C(=O)N(c1c(C(C)C)cccc1C(C)C)C6=O
emission maximum (in ClCCl): 626 nm

N#Cc1c(-n2c3ccccc3c3ccccc32)c(-n2c3ccccc3c3ccccc32)cc(-n2c3ccccc3c3ccccc32)c1-n1c2ccccc2c2ccccc21
emission maximum (in CCCCCC): 439.08 nm
emission maximum (in CCO): 468.52 nm
emission maximum (in Cc1ccccc1): 442 nm
emission maximum (in ClCCl): 456.64 nm

Cc1cccc2nc3c(=O)n(C)c(=O)nc-3n(C)c12
emission maximum (in CC#N): 532 nm

c1ccc(-c2nc(-c3ccccn3)[se]c2N(c2ccccc2)c2ccccc2)cc1
emission maximum (in ClC(Cl)Cl): 498 nm

CCCCc1ccc2c(c1)c1cc(CCCC)ccc1n2-c1ccc(S(=O)(=O)c2ccc(S(=O)(=O)c3ccc(-n4c5ccc(CCCC)cc5c5cc(CCCC)ccc54)cc3)cc2)cc1
emission maximum (in Cc1ccccc1): 450 nm
emission maximum (in c1cc(-n2c3ccccc3c3ccccc32)nc(-n2c3ccccc3c3ccccc32)c1): 467.24 nm

CCCCCCCCC1(CCCCCCCC)c2cc(-c3ccc(C(F)(F)F)cc3)ccc2-c2ccc(N(c3ccc(-n4c5ccccc5c5ccccc54)cc3)c3ccc4c(c3)C(CCCCCCCC)(CCCCCCCC)c3cc(-c5ccc(C(F)(F)F)cc5)ccc3-4)cc21
emission maximum (in C1CCOC1): 455 nm
emission maximum (in C1COCCO1): 434 nm
emission maximum (in CC#N): 495 nm
emission maximum (in CC(C)=O): 477 nm
emission maximum (in CCCCCC): 416 nm
emission maximum (in CCCCOCCCC): 425 nm
emission maximum (in CCN(CC)CC): 423 nm
emission maximum (in CCOC(C)=O): 450 nm
emission maximum (in CCOCC): 432 nm
emission maximum (in CN(C)C=O): 493 nm
emission maximum (in CS(C)=O): 486 nm
emission maximum (in Cc1ccccc1): 427 nm
emission maximum (in ClC(Cl)Cl): 445 nm
emission maximum (in ClCCl): 465 nm
emission maximum (in c1ccccc1): 428 nm

COc1ccc(C2=[N+]3C(=Nc4c(-c5cc(OC)c(OC)c(OC)c5)c(Br)c(-c5ccc(OC)cc5)n4[B-]3(F)F)C(c3cc(OC)c(OC)c(OC)c3)=C2Br)cc1
emission maximum (in Cc1ccccc1): 723 nm

N#CC1=C(c2ccc(-c3cccs3)s2)CCC1
emission maximum (in C1CCOC1): 441 nm
emission maximum (in CC#N): 445 nm
emission maximum (in CCCCCC): 428 nm
emission maximum (in CCO): 443 nm
emission maximum (in OCCOCCO): 455 nm
emission maximum (in c1ccncc1): 450 nm

CCCCCCn1c2cc(C=O)sc2c2sc3c(sc4c5sc(C=O)cc5n(CCCCCC)c43)c21
emission maximum (in ClCCl): 496 nm

C(=C\c1cc[n+]2ccc(/C=C/c3cc[nH]c3)cc2c1)/c1cc[nH]c1
emission maximum (in CO): 542 nm

CCCCCC(CC)C1(C(CC)CCCCC)c2ccccc2-c2ccc(C#Cc3cc(C#Cc4ccc5c(c4)C(C(CC)CCCCC)(C(CC)CCCCC)c4ccccc4-5)c4ccc5c(C#Cc6ccc7c(c6)C(C(CC)CCCCC)(C(CC)CCCCC)c6ccccc6-7)cc(C#Cc6ccc7c(c6)C(C(CC)CCCCC)(C(CC)CCCCC)c6ccccc6-7)c6ccc3c4c65)cc21 (configuration not stated)
emission maximum (in C1CCCCC1): 507 nm
emission maximum (in C1CCOC1): 513 nm
emission maximum (in CCOC(C)=O): 509 nm
emission maximum (in CN(C)C=O): 518 nm
emission maximum (in Cc1ccccc1): 513 nm
emission maximum (in ClC(Cl)Cl): 514 nm
emission maximum (in ClCCl): 514 nm

CN(C)c1ccc(/C=C/C=C/c2nc3ccccc3s2)cc1
emission maximum (in C1COCCO1): 516 nm
emission maximum (in CC#N): 562 nm
emission maximum (in CC(C)=O): 557 nm
emission maximum (in CCCCCC): 478 nm
emission maximum (in CCCCO): 531 nm
emission maximum (in CCCO): 533 nm
emission maximum (in CCO): 560 nm
emission maximum (in CN(C)C=O): 567 nm
emission maximum (in CO): 573 nm
emission maximum (in Cc1ccccc1): 500 nm
emission maximum (in ClC(Cl)(Cl)Cl): 499 nm
emission maximum (in ClC(Cl)Cl): 526 nm
emission maximum (in ClCCl): 533 nm
emission maximum (in OCC(O)CO): 583 nm
emission maximum (in OCCO): 583 nm
emission maximum (in c1ccccc1): 504 nm

CCNc1cc2c(cc1C)C(c1ccccc1C(=O)O)=C1CCCC(/C=C/C3=[N+](C)c4ccc5ccccc5c4C3(C)C)=C1O2
emission maximum (in CC#N): 749 nm
emission maximum (in CCO): 741 nm
emission maximum (in CO): 744 nm
emission maximum (in ClC(Cl)Cl): 748 nm

COc1ccc(-c2cn3cc(C)c[n+]3[n-]2)cc1
emission maximum (in ClCCl): 421 nm

N#Cc1ccc(/C=C2\N=C(c3ccccc3)NC2=O)cc1
emission maximum (in C1COCCO1): 464 nm

O=C(O)C1=C/C(=C/C=[N+]2/c3cc(O)c(C[C@@H]4O[C@H](CO)[C@@H](O)C(O)[C@H]4O)cc3C[C@H]2C(=O)O)C[C@@H](C(=O)O)N1 (some centres not stated)
emission maximum (in CO): 611 nm
emission maximum (in O): 640 nm
emission maximum (in OCCO): 607 nm
emission maximum (in [2H]O[2H]): 640 nm

O=c1oc2ccccc2nc1-c1ccccc1
emission maximum (in c1ccccc1): 450 nm

Cn1cccc1-c1ccc(C#N)cc1
emission maximum (in C1CCOC1): 383 nm
emission maximum (in CC#N): 407 nm
emission maximum (in CCCCCC): 357 nm
emission maximum (in CCCCOCCCC): 367 nm
emission maximum (in CCOCC): 371 nm

CC1(C)CC(=O)c2c(F)c(C(F)(F)F)c(F)c(F)c2N1
emission maximum (in CC#N): 419 nm
emission maximum (in CCO): 453 nm

O=C(O)COc1ccc2[nH]c3c(c2c1)CCCC3=O
emission maximum (in C1CCOC1): 419.81 nm
emission maximum (in C1COCCO1): 404.04 nm
emission maximum (in CC#N): 419.23 nm
emission maximum (in CCCCCCCCCCCCO): 449.42 nm
emission maximum (in CCCCCCCCCCO): 449.81 nm
emission maximum (in CCCCCCCCO): 456.15 nm
emission maximum (in CCCCCCO): 469.04 nm
emission maximum (in CCCCO): 464.23 nm
emission maximum (in CCO): 472.12 nm
emission maximum (in CCOC(C)=O): 410 nm
emission maximum (in CN(C)C=O): 430 nm
emission maximum (in CO): 491.73 nm
emission maximum (in CS(C)=O): 426.92 nm
emission maximum (in Cc1ccccc1): 400.96 nm
emission maximum (in O): 507.69 nm
emission maximum (in c1ccccc1): 399.81 nm

Cc1cccc2[n+]1[B-](c1ccccc1)(c1ccccc1)c1cccc3c4c5c(cccc5c-2c13)[B-](c1ccccc1)(c1ccccc1)[n+]1c(C)cccc1-4
emission maximum (in ClCCl): 611 nm
